{"source": "paper PMC11207022", "about": "“Enhanced Enzymatic Performance of Immobilized Pseudomonas fluorescens Lipase on ZIF-8@ZIF-67 and Its Application to the Synthesis of Neryl Acetate with Transesterification Reaction” (Molecules, 2024)", "tested_on": "T1, Pseudomonas fluorescens lipase (PFL)", "T1 construct": "commercial lipase powder (Amano Enzyme Ltd., Nagoya, Japan), used without further treatment; free enzyme", "assay": "colorimetric p-nitrophenol release at […] nm; initial rates, linear regression (Lineweaver-Burk)", "format": "biochemical", "conditions": "free enzyme; standard assay phosphate buffer pH 7.5, 40 °C, with Triton and acetone"}
{"smiles": "CCCC(=O)Oc1ccc([N+](=O)[O-])cc1", "note": "[p-nitrophenol butyrate]", "values": [{"measurement": "Km", "result": 760, "unit": "µM"}]}
